Values joined by “and” are separate entries in the source; they are usually repeats but may differ in a detail not shown here. Equal entries are not always repeated.
Assays:
[1] = Non-specific binding assessment, efflux transporter format (cell-free Transwell plates); type: in vitro ADME; conditions: pH 7.4, all three replicates
Description: Triplicate wells were used for the assay (Table 31). The samples were withdrawn at pre-selected time points from the receiver and donor compartments and mixed with an equal volume of acetonitrile containing IS.

[2] = Solubility assessment in HBSSg_7.4 and HBSSg_8.5; conditions: for solubility: 37 °C, thermodynamic from solid; for Measured Concentration / Percent of the Nominal Concentration: replicates 1-3; for Measured Concentration: incubated overnight
[3] = target: T1, OATP1B3 (Homo sapiens, UniProt Q9NPD5)
T1 sequence (Q9NPD5 1-702): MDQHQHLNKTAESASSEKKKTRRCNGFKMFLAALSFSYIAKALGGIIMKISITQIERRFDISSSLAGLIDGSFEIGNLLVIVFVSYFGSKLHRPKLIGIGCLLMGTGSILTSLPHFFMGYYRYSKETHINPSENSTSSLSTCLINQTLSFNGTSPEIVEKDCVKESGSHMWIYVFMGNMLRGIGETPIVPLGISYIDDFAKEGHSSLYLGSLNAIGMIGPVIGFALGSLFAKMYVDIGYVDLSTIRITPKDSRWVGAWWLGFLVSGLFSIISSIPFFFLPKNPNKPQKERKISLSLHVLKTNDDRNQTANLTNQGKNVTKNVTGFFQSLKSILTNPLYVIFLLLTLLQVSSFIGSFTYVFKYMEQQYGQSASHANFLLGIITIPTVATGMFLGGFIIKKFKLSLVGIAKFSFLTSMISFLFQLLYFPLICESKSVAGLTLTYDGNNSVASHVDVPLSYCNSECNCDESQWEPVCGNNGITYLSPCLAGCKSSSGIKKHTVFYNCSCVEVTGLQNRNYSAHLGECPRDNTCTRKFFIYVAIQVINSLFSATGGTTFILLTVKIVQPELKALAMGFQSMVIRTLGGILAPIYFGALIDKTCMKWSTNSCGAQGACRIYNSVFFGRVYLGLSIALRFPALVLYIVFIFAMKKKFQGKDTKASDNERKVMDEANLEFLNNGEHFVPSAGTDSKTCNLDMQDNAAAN

[4] = set-up: species or system male Sprague Dawley rats; conditions: rat, in vivo
Experimental: Total urine recovery data for Tenofovir, TDF, and PB was calculated for the 24 hour collection period on Days 1 and 5. […] The reported urine recovery data included amount recovered (ng) and percent recovered (%) for […]. Individual and mean Tenofovir, TDF, and PB urine recovery data were presented with SD, reported to three significant figures, and CV %, reported to one decimal place.

[5] = test system: human liver microsomes (HLM); test: CYP reaction phenotyping using HLM and chemical inhibitors (% remaining); type: in vitro ADME; conditions: human, microsomes, 5 μM, pH 7.4
Description: (§1) % Remaining of TA=100×At/A0
(§2) Where, At and A0 are the peak area ratio of TA to IS at time t and at time zero, respectively.

[6] = target: T2, human liver microsomes (HLM) (Homo sapiens, UniProt P10635); test: as above; type: in vitro ADME; conditions: human, microsomes, 5 μM, pH 7.4
T2 construct: from tissue; host or cells: pooled human liver microsomes
T2 sequence (P10635 whole entry): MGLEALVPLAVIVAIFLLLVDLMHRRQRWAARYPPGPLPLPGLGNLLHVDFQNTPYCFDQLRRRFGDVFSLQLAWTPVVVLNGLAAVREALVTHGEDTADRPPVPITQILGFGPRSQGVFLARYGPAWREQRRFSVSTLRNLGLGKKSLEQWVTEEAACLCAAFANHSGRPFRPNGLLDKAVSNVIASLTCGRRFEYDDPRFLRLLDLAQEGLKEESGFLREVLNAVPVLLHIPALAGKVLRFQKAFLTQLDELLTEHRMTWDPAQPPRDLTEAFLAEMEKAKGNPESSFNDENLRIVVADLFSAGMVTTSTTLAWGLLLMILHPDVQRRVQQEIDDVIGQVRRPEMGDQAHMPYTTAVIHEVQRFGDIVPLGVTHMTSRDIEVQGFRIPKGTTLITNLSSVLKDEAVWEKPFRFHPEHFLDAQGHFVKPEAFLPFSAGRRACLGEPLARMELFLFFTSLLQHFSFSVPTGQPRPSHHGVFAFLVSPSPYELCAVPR
Description: as §1, §2

[7] = target: T3, human liver microsomes (HLM) (Homo sapiens, UniProt P11712); test: as above; type: in vitro ADME; conditions: human, microsomes, 5 μM, pH 7.4
T3 construct: from tissue; host or cells: pooled human liver microsomes
T3 sequence (P11712 whole entry): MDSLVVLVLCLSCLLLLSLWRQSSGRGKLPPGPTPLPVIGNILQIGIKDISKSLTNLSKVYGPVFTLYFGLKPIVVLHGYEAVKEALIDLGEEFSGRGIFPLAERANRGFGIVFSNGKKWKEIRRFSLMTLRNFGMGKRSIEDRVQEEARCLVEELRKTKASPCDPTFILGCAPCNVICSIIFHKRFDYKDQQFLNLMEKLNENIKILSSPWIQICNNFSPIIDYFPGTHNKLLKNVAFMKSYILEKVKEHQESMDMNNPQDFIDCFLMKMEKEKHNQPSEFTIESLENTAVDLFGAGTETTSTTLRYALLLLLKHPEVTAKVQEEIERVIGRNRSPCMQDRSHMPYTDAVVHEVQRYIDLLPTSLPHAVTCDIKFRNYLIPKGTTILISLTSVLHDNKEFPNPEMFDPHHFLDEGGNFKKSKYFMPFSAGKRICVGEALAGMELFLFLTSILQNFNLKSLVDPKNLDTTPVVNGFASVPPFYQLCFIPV
Description: as §1, §2

[8] = target: T4, human liver microsomes (HLM) (Homo sapiens, UniProt P33261); test: as above; type: in vitro ADME
T4 construct: from tissue; host or cells: pooled human liver microsomes
T4 sequence (P33261 whole entry): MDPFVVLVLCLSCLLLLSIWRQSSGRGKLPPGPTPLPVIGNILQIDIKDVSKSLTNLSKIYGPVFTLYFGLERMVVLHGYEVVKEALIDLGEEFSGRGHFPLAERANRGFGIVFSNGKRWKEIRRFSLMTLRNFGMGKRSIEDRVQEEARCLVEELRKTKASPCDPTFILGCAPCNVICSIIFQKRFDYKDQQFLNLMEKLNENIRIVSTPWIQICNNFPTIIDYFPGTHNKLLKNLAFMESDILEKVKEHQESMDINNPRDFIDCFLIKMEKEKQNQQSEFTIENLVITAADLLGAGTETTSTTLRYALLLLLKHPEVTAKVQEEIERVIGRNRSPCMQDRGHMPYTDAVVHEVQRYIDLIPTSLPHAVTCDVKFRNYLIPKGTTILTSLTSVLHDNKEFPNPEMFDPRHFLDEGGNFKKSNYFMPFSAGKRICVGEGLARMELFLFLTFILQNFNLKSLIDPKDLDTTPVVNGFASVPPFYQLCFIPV
Description: as §1, §2

[9] = target: T5, human liver microsomes (HLM) (Homo sapiens, UniProt P05177); test: as above; type: in vitro ADME; conditions: human, microsomes, 5 μM, pH 7.4
T5 construct: from tissue; host or cells: pooled human liver microsomes
T5 sequence (P05177 1-516): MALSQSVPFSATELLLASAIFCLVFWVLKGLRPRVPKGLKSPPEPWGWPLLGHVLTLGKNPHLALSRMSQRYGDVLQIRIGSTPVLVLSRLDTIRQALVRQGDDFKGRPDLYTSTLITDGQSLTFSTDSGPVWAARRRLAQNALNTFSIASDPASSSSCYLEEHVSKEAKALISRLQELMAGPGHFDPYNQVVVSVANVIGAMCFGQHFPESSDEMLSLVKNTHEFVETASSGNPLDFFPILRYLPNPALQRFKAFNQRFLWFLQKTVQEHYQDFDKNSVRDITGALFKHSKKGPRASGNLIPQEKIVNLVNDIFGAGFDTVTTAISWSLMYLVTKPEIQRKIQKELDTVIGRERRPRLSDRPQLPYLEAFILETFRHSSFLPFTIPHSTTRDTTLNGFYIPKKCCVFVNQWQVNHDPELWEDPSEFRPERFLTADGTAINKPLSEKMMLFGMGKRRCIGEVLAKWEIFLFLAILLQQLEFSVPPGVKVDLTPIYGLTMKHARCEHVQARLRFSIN
Description: as §1, §2

[10] = HBSSg 7.4 buffer, pH 7.4, aqueous buffer
[11] = HBSSg 8.5 buffer, pH 8.5, aqueous buffer
[12] = human, microsomes, 0 h, 5 μM, pH 7.4
[13] = human, microsomes, 5 min, 5 μM, pH 7.4
[14] = human, microsomes, 20 min, 5 μM, pH 7.4
[15] = human, microsomes, 1 h, 5 μM, pH 7.4

Row | Structure (SMILES) | recovery [1] | solubility [2, 10] | solubility [2, 11] | IC50 [3] | % Remaining of TA (n = 3) Average ([6]; 0 h) | % Remaining of TA (n = 3) Average ([6]; 20 min) | % Remaining of TA (n = 3) Average ([6]; 1 h) | % Remaining of TA (n = 3) Average ([7]; 0 h) | % Remaining of TA (n = 3) Average ([7]; 5 min) | % Remaining of TA (n = 3) Average ([7]; 20 min) | % Remaining of TA (n = 3) Average ([7]; 0.5 h) | % Remaining of TA (n = 3) Average ([7]; 1 h) | % Remaining of TA (n = 3) Average [8, 12] | % Remaining of TA (n = 3) Average [8, 13] | % Remaining of TA (n = 3) Average [8, 14] | % Remaining of TA (n = 3) Average [8, 15] | % Remaining of TA (n = 3) Average ([9]; 0 h) | % Remaining of TA (n = 3) Average ([9]; 5 min) | % Remaining of TA (n = 3) Average ([9]; 10 min) | % Remaining of TA (n = 3) Average ([9]; 20 min) | other results
1 | O=C(O)CCCc1ccccc1 [PB, sodium phenylbutyrate] | > 80% | ≥ 64.4 mM | ≥ 73.9 mM | 3630 to 10900 µM | 100% | 97.5% | 98.8% | 100% | 103% | 98.5% | 99.6% | 97.6% | 100% | 101% | 101% | 101% | 100% | 116% | 131% | 125% | Measured Concentration ([2]; HBSSg_7.4): 52000 µM and 59300 µM and 52800 µM; Percent of the Nominal Concentration ([2]; HBSSg_7.4, target 8005 (TUDCA), 64447 μM (PB)): 80.7% and 92.0%; Measured Concentration ([2]; HBSSg_8.5): 62200 µM and 53200 µM and 61100 µM; Percent of the Nominal Concentration ([2]; HBSSg_8.5, target 810 μM (TUDCA), 73927 μM (PB)): 84.1% and 72.0% and 82.6%; Urine concentrations ([4]; male, Sprague Dawley, po): Urine concentrations for PB analysis in all animals on Day 1, for TUDCA analysis in all animals on Days 1 and 5, and for TDF analysis in two animals on Day 1 and one animal on Day 5 were BLQ (<20 ng/mL) so no recovery data was calculated.; % Remaining of TA (n = 3) Average ([5]; 5 min): 109%; % Remaining of TA (n = 3) Average ([5]; 20 min): 113%; % Remaining of TA (n = 3) Average ([8]; human, microsomes, 0.5 h, 5 μM, pH 7.4): 101%; % Remaining of TA (n = 3) Average ([9]; 0.5 h): 127%; % Remaining of TA (n = 3) Average ([9]; 1 h): 128%
2 | C[C@H](CCC(=O)NCCS(=O)(=O)O)[C@H]1CC[C@H]2[C@@H]3[C@@H](O)C[C@@H]4C[C@H](O)CC[C@]4(C)[C@H]3CC[C@]12C [TUDCA, tauroursodeoxycholic acid] | > 80% | ≥ 8.01 mM | ≥ 0.81 mM | 38.7 to 116 µM | 100% | 99.7% | 87.2% | 100% | 102% | 92.8% | 95.0% | 95.3% | 100% | 106% | 93.1% | 94.5% | 100% | 123% | 123% | 121% | detection in urine [4]: not detected in any urine samples; % Remaining of TA (n = 3) Average ([5]; 0 h): 100%; % Remaining of TA (n = 3) Average ([6]; 5 min): 101%; % Remaining of TA (n = 3) Average ([6]; 10 min): 110%; % Remaining of TA (n = 3) Average ([6]; 0.5 h): 101%; % Remaining of TA (n = 3) Average ([7]; 10 min): 96.9%; % Remaining of TA (n = 3) Average ([8]; human, microsomes, 10 min, 5 μM, pH 7.4): 93.0%; % Remaining of TA (n = 3) Average ([8]; reversible incubation condition, CYP2C19 (+NADPH, +N3B), 30 min): 92.1%; % Remaining of TA (n = 3) Average ([9]; 0.5 h): 120%; % Remaining of TA (n = 3) Average ([9]; 1 h): 128%

— patent publication US20230277630A1, “METHODS AND COMPOSITIONS FOR TREATING AMYOTROPHIC LATERAL SCLEROSIS” (Amylyx Pharmaceuticals, Inc., priority 2022, published 2023)
